Counter-ions that a name gives are not always drawn.
melting point [°C]	SMILES
> 300	COc1cc(Cc2cnc(NCCO)nc2N)c(C(C)C)cc1OC (as salt: HCl)
111.4 to 116.9	COc1cc(C(C)C)c(Oc2cnc(N[C@H](C)CO)nc2N)cc1Cl (as salt: hydrochloride)
135 to 138.5	COc1cc(C(C)C)c(Oc2cnc(N)nc2N)cc1Cl (as salt: trifluoroacetic acid salt)
63.5 to 69.4	CNC(=O)OC[C@@H](C)Nc1ncc(Oc2cc(Cl)c(OC)cc2C(C)C)c(N)n1 (stereo in doubt)

Reference: patent US8524725B2, “Methods of using diaminopyrimidine as P2X3 and P2X⅔ receptor modulators for treatment of respiratory and gastrointestinal diseases” (Roche Palo Alto LLC, priority 2005, dated 2013)
